{
  "source": "paper PMC7954794",
  "about": "“Protein context shapes the specificity of SH3 domain-mediated interactions in vivo” (Nature Communications, 2021)",
  "tested_on": "Abp1 PPIs",
  "test": "DHFR-PCA of Abp1 SH3-swapped baits (Fig. 2B-D, S2C, S2F);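 as to Protein-protein interaction distance between Abp1 SH3-swapped baits, to ABP1: Euclidean distance between DHFR-PCA score profiles of the baits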;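 as to Protein-protein interaction distance between Abp1 SH3-swapped baits, to BEM1-2: Euclidean distance between DHFR-PCA score profiles of the baits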;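 as to Protein-protein interaction distance between Abp1 SH3-swapped baits, to BOI1: Euclidean distance between DHFR-PCA score profiles of the baits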;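 as to Protein-protein interaction distance between Abp1 SH3-swapped baits, to BZZ1-1: Euclidean distance between DHFR-PCA score profiles of the baits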",
  "type": "cell-based, Saccharomyces cerevisiae",
  "source_text": "Having determined that multiple PPIs require SH3s, we asked whether the latter establish PPI specificity independently from their host proteins by swapping domains (Fig. 2A). Using the second round of genome editing, we individually replaced Abp1 SH3 with the 27 yeast SH3s and 3 human Abp1 orthologs’ SH3s (CTTN, HCLS1, and DBNL, Fig. 2B). The reintroduction of its own SH3 (Abp1SH3 in Abp1) reconstitutes almost perfectly Abp1’s interaction profile (Kendall’s τ = 0.93, Fig. 2B). […] No homologous SH3 domain fully re-establishes the normal Abp1 PPI profile (Fig. 2B and Supplementary Fig. 2C). However, we observe a significant correlation (cophenetic correlation = 0.20, p value = 0.005, Fig. 2C) between the similarity of PPI profiles (Fig. 2B) and the sequence similarity of the SH3s. […] Nonetheless, a subset of SH3-dependent PPIs is only observed with the endogenous domain. For instance, Hua2 and App1, both well-characterized partners of Abp1[14],[18],[19], are only detected when Abp1 contains its own SH3 (WT or swapped via editing). A given SH3 may therefore not be fully replaceable with other paralogous or orthologous domains. This pattern is confirmed by cellular growth phenotypic analyses (Supplementary Fig. 2D, E). PPIs, SH3 sequence similarity, and growth profiles under stress conditions are correlated (Supplementary Fig. 2D, E). This relationship is particularly clear when analyzing growth on media supplemented with hygromycin.\nThe stuffing of YSC84 SH3 rendered the strain sterile and was therefore not used for this study as the assays require crosses. For genes containing two SH3s (BZZ1 and BEM1), a combination of this first stuffer with a second one ([…]) coding for a highly similar linker ([…]) was used, which allowed targeting each SH3 position independently. The two N-terminal domains of SLA1, which are separated by six nucleotides, were stuffed by a single stuffer. Cells containing pCAS were selected via the G418 resistance cassette from the plasmid on YPD plates (YPD + NAT 100 μg/ml (DHFR F[1,2] selection) + G418 200 µg/mL (Bioshop Canada)). Colonies were randomly selected and grown in YPD media without G418 to allow plasmid loss. The correct insertion of the stuffer was validated by PCR and Sanger sequencing. The SH3-swapped, -shuffled, and -mutated strains were constructed following a second CRISPR–Cas9 editing step with the same procedures. The stuffer sequences were targeted by specific gRNAs (one gRNA per stuffer) and replaced by PCR amplified specific SH3 (with 40 bp homology arms) or libraries of mutated SH3 domains for Deep Mutational Scanning (DMS) with 78 bp flanking homology regions. Validation of the SH3 domain insertions was done as we previously described except for DMS libraries (see below).\nThe overall DHFR-PCA pipeline is based on Tarassov et al.[43] and the procedures have also been published as a visualized protocol. The screens were performed with robotically manipulated pin tools (BM5-SC1, S&P Robotics Inc.). First, the preys were cherry-picked from 96-well plates to omnitrays in a 384 format on YPD + HPH solid media. Plates were then combined into the 1536 format on YPD + HPH. The array was constituted of 575 preys previously shown to interact physically with at least one SH3-containing protein as reported in BioGRID V3.4.16 along with 40 negative controls. The prey array comprised a border of control strains of two rows and two columns corresponding to the PPI between LSM8-DHFR F[1,2] and CDC39-DHFR F[3]. This double border was used to remove border effects. Preys are present in duplicate at a randomized position in the 1536 array (except for YAL041W which is present four times per array). Baits were crossed with two prey plates, resulting in four independent bait–prey tests for each PPI. Baits were grown in liquid YPD + NAT and then transferred on solid YPD + NAT omnitrays. They were then replicated on YPD + NAT omnitrays in 1536 array format. […]",
  "key": {"[1]": {"details": "Fig2B, bait ABP1, label = prey, Replicates 4"}},
  "data": [
    {"substance": "CDC25", "values": [
      {"measurement": "Protein-protein interaction distance between Abp1 SH3-swapped baits, to ABP1", "setting": "Abp1 bait with swapped SH3, distance to bait with ABP1 SH3, sheet Fig2C", "value": 26.13},
      {"measurement": "Protein-protein interaction distance between Abp1 SH3-swapped baits, to BBC1", "setting": "distance to Abp1 bait with BBC1 SH3, sheet Fig2C", "value": 24.45},
      {"measurement": "Protein-protein interaction distance between Abp1 SH3-swapped baits, to BEM1-1", "setting": "distance to Abp1 bait with BEM1-1 SH3, sheet Fig2C", "value": 16.86},
      {"measurement": "Protein-protein interaction distance between Abp1 SH3-swapped baits, to BEM1-2", "setting": "distance to Abp1 bait with BEM1-2 SH3, sheet Fig2C", "value": 13.04},
      {"measurement": "Protein-protein interaction distance between Abp1 SH3-swapped baits, to BOI1", "setting": "distance to Abp1 bait with BOI1 SH3, sheet Fig2C", "value": 21},
      {"measurement": "Protein-protein interaction distance between Abp1 SH3-swapped baits, to BOI2", "setting": "distance to Abp1 bait with BOI2 SH3, sheet Fig2C", "value": 19.43},
      {"measurement": "Protein-protein interaction distance between Abp1 SH3-swapped baits, to BUD14", "setting": "distance to Abp1 bait with BUD14 SH3, sheet Fig2C", "value": 15.51},
      {"measurement": "Protein-protein interaction distance between Abp1 SH3-swapped baits, to BZZ1-1", "setting": "distance to Abp1 bait with BZZ1-1 SH3, sheet Fig2C", "value": 25.36},
      {"measurement": "Protein-protein interaction distance between Abp1 SH3-swapped baits, to BZZ1-2", "setting": "distance to Abp1 bait with BZZ1-2 SH3, sheet Fig2C", "value": 21.74},
      {"measurement": "Protein-protein interaction distance between Abp1 SH3-swapped baits, to CDC25", "setting": "distance to Abp1 bait with CDC25 SH3, sheet Fig2C", "value": 0.00},
      {"measurement": "Protein-protein interaction distance between Abp1 SH3-swapped baits, to CTTN", "setting": "distance to Abp1 bait with CTTN SH3, sheet Fig2C", "value": 20.74},
      {"measurement": "Protein-protein interaction distance between Abp1 SH3-swapped baits, to CYK3", "setting": "distance to Abp1 bait with CYK3 SH3, sheet Fig2C", "value": 5.497},
      {"measurement": "Protein-protein interaction distance between Abp1 SH3-swapped baits, to DBNL", "setting": "distance to Abp1 bait with DBNL SH3, sheet Fig2C", "value": 24.44},
      {"measurement": "Protein-protein interaction distance between Abp1 SH3-swapped baits, to FUS1", "setting": "distance to Abp1 bait with FUS1 SH3, sheet Fig2C", "value": 14.2},
      {"measurement": "Protein-protein interaction distance between Abp1 SH3-swapped baits, to HCLS1", "setting": "distance to Abp1 bait with HCLS1 SH3, sheet Fig2C", "value": 27.89},
      {"measurement": "Protein-protein interaction distance between Abp1 SH3-swapped baits, to HOF1", "setting": "distance to Abp1 bait with HOF1 SH3, sheet Fig2C", "value": 10.42},
      {"measurement": "Protein-protein interaction distance between Abp1 SH3-swapped baits, to HSE1", "setting": "distance to Abp1 bait with HSE1 SH3, sheet Fig2C", "value": 24.19},
      {"measurement": "Protein-protein interaction distance between Abp1 SH3-swapped baits, to LSB1", "setting": "distance to Abp1 bait with LSB1 SH3, sheet Fig2C", "value": 30.85},
      {"measurement": "Protein-protein interaction distance between Abp1 SH3-swapped baits, to LSB3", "setting": "distance to Abp1 bait with LSB3 SH3, sheet Fig2C", "value": 30.47},
      {"measurement": "Protein-protein interaction distance between Abp1 SH3-swapped baits, to MYO3", "setting": "distance to Abp1 bait with MYO3 SH3, sheet Fig2C", "value": 29.41},
      {"measurement": "Protein-protein interaction distance between Abp1 SH3-swapped baits, to MYO5", "setting": "distance to Abp1 bait with MYO5 SH3, sheet Fig2C", "value": 28.8},
      {"measurement": "Protein-protein interaction distance between Abp1 SH3-swapped baits, to NBP2", "setting": "distance to Abp1 bait with NBP2 SH3, sheet Fig2C", "value": 15.13},
      {"measurement": "Protein-protein interaction distance between Abp1 SH3-swapped baits, to PEX13", "setting": "distance to Abp1 bait with PEX13 SH3, sheet Fig2C", "value": 29.16},
      {"measurement": "Protein-protein interaction distance between Abp1 SH3-swapped baits, to PIN3", "setting": "distance to Abp1 bait with PIN3 SH3, sheet Fig2C", "value": 28.09},
      {"measurement": "Protein-protein interaction distance between Abp1 SH3-swapped baits, to RVS167", "setting": "distance to Abp1 bait with RVS167 SH3, sheet Fig2C", "value": 27.4},
      {"measurement": "Protein-protein interaction distance between Abp1 SH3-swapped baits, to SDC25", "setting": "distance to Abp1 bait with SDC25 SH3, sheet Fig2C", "value": 14.8},
      {"measurement": "Protein-protein interaction distance between Abp1 SH3-swapped baits, to SHO1", "setting": "distance to Abp1 bait with SHO1 SH3, sheet Fig2C", "value": 24.02},
      {"measurement": "Protein-protein interaction distance between Abp1 SH3-swapped baits, to SLA1-1", "setting": "distance to Abp1 bait with SLA1-1 SH3, sheet Fig2C", "value": 7.329},
      {"measurement": "Protein-protein interaction distance between Abp1 SH3-swapped baits, to SLA1-2", "setting": "distance to Abp1 bait with SLA1-2 SH3, sheet Fig2C", "value": 13.18},
      {"measurement": "Protein-protein interaction distance between Abp1 SH3-swapped baits, to SLA1-3", "setting": "distance to Abp1 bait with SLA1-3 SH3, sheet Fig2C", "value": 30.95},
      {"measurement": "Protein-protein interaction distance between Abp1 SH3-swapped baits, to YSC84", "setting": "distance to Abp1 bait with YSC84 SH3, sheet Fig2C", "value": 30.76},
      {"measurement": "SH3-dependent PPIs - SH3-dependent PPIs gained by Abp1", "setting": "number of PPIs, difference, Abp1 SH3-swapped with the listed SH3, Fig2D,S2F", "value": 3},
      {"measurement": "SH3-dependent PPIs gained by Abp1", "setting": "number of PPIs, Abp1 SH3-swapped with the listed SH3, DHFR-PCA, Fig2D,S2F", "value": 0}
    ]},
    {"substance": "YAL005C", "values": [
      {"measurement": "medrep (log2 median colony size normalized to plate background)", "setting": "[1]", "value": 5.43},
      {"measurement": "medsize (median colony size)", "setting": "[1]", "value": 6098}
    ]}
  ]
}
